Key:
[1] = Blood analysis after oral administration (glucuronidation); type: in vivo, and monkeys; details: mice, rats, guinea pigs, dogs, monkeys (any species)
Description: (§1) The smooth muscle contraction induced in the tracheal smooth muscle sample of a pig with a high concentration of KCl or carbachol is inhibited with an IC50 of about 5 μM. […] In mice, rats, guinea pigs, dogs, and monkeys, as the result of blood analysis after the administration, not less than 99% of the compound was the glucuronic conjugate in any of the animal species.

[2] = system: airway pressure of guinea pig sensitized with ovalbumin; assay: Antigen (ovalbumin) induced airway contraction, immediate type asthmatic model, Konzett and Rossler method; type: in vivo; details: for inhibition compared to the control group: 10 min
[3] = system: tracheal smooth muscle sample of a pig; assay: In vitro inhibition of smooth muscle contraction induced with high concentration of KCl or carbachol; type: cell-based
Description: as §1

[4] = system: blood pressure and heart rate; assay: Blood pressure and heart rate after generalized inhalation exposure; type: in vivo, Crj:CD(SD) rats; details: inhalation 10 min; for increase of the heart rate: after five minutes
Description: The test was conducted by using Crj:CD(SD) rats with each group of 6 rats.
Surgery was carried out under the anesthesia of a mixed gas of oxygen, nitrous oxide and isoflurane, and one end of a polyethylene tube (PE50, Becton Dickinson) filled with physiological saline containing heparin (100 U/mL) was inserted into a common carotid artery and indwelled, and the other end was passed through the neighborhood of the neck of the back of the animal and connected to a cannula (Instec Co.) installed at the upper portion of an exposure chamber. This cannula was connected to a pressure transducer (P23XL. Gould Electronics) through a polyethylene tube. Further, the periphery of the polyethylene tube from the back of the rat up to this cannula was passed through a metallic spring to prevent a damage to be caused by the rat.
The administration of the drugs was conducted by preparing an exposure chamber and subjecting the rat with a cannula for measuring blood pressure in the indwelled state in the common cartoid artery to the generaliged inhalation exposure. This method is typically used in the generalized inhalation exposure.
The signals from the pressure transducer (P23XL, Gould Electronics) were led to a pressure processor signal conditioner (Gould Electronics) and recorded on a thermal array recorder (RS3400, Gould Electronics). The blood pressure and the heart rate were continuously recorded from before the initiation of administration to 20 minutes after the completion of administration. The administration of the drugs was initiated when not less than one hour after waking passed and the measurement parameters were stabilized.
Test substances were prepared in the same manner as in Example 1.
The representative values of each group were shown by mean values [[…] (S.E.)]. With the mean values of each group, the test of significance was conducted by the Tukey's multiple test. Further, the significant standard was regarded as 5%.

[5] = system: airway pressure of guinea pig sensitized with ovalbumin; assay: Antigen (ovalbumin) induced airway contraction, immediate type asthmatic model, Konzett and Rossler method; type: in vivo; details: for increase ratio of the airway pressure / inhibition compared to the control group / increase in the airway pressure: 10 min; for inhibition of the immediate type asthmatic reaction (airway contraction): inhalation administration, guinea pigs
Description: In order to examine the bronchodilation effect of the glucuronides of salbutamol and isoprenaline of β2-agonists, an asthmatic model of a guinea pig sensitized with ovalumin was used. The test was conducted in accordance with the method of Konzett and Rossler (Arch. Exp. Pathol. Pharmakol., 195, 71-75, 1940).
On day 1 and day 8 after the initiation of sensitization, 500 μg/0.5 mL of ovalbumin was intramuscularly administered to both legs of a guinea pig and 1.5×10^5 cells/mL/animal of pertussis vaccine was intraperitoneally administered to effect active sensitization. On day 15 after the initiation of sensitization, 10 and 100 μg/site of ovalbumin were intradermally administered to the back of the guinea pig, respectively, to check the state of sensitization. Only the animals which were found positive by the sensitization check 6 hours after the intradermal sensitization were used in the experiment.
As the test substance, a drug solution was atomized by reducing the atomizing amount of an ultrasonic nebulizer to generate an aerosol, and the aerosol was then led into an exposure chamber (M.I.P.S. Co.), sucked at a rate of 3 L/min with the use of an air pump (SPP-3GA, Techno Takatsuki Co.) and administered to the guinea pig for 10 minutes by inhalation 40 minutes before the challenge of ovalbumin.
On day 10 to 23 after the initiation of sensitization, the animals were anesthetized with sodium pentobarbital (50 mg/kg, i.p.), and cannulation was conducted into the trachea. Through the tracheal cannula the animals were connected to an artificial respirator and the change in the ventilation pressure under artificial respiration (a ventilation amount of 10 mL/kg, a ventilation frequency of 50 times/min) was recorded as the airway pressure through a differential pressure transducer (Validyne, Gould Electronics) connected to the tracheal cannula on a recorder (WT-645G, Nihon Koden Co., Ltd.). The airway pressure was measured up to 10 minutes after the administration of ovalbumin. Then, cannulation was conducted into the right and left common carotid veins. From the left cannulation, gallamine (10 mg/mL) in a volume of 1 mL/kg was intravenously administered ([…]) to confirm the disappearance of spontaneous respiration. Thereafter, ovalbumin was intravenously administered to induce an antigen-antibody reaction. The measuring points of the airway pressure were set at a time before induction, and at 1, 3, 5, 7, and 10 minutes after induction. The ratio of the increase in the airway pressure is represented by the percentage of the values obtained by subtracting the observed value before induction from the observed value at each measuring time after induction based on the maximum occlusion at each measuring time.
As the test substances, salbutamol glucuronide and isoprenaline glucuronide were used. The salbutamol glucuronide is a white powder and the isoprenaline glucuronide is a brown crystal and both were stored at −80° C. under protection from light. As the control substances for comparison, each of sulbutamol chloride (hereinafter referred to as sulbutamol) and isoprenaline chloride (hereinafter referred to as isoprenaline) was used. The salbutamol and the isoprenaline are white powders and were stored at room temperature under protection from light. The test substances and the control substances for comparison were weighed in a necessary amount and dissolved in physiological saline (products of Otsuka Pharmaceutical Factory, Inc., Lot Nos. 1D78 and 1E84) to effect the preparation before using. The concentrations of the test substances and the control substances for comparison in solutions were rendered equivalent amounts by molar concentration. All solutions were nearly stable at room temperature for 24 hours.
The obtained experimental results were shown by mean values and standard deviations with airway pressure. As to the test of significance, the Student's t test without any correspondence was conducted when two groups were compared. […]

[6] = inhalation 0.157%, after three minutes
[7] = inhalation 0.1%, three minutes after antigen induction
[8] = 1 mg/L, during 30 minutes of measurement
[9] = inhalation 0.072%, after three minutes
[10] = 5 mg/L, during 30 minutes of measurement

## CCC1Cc2c(O)cc(O)cc2Sc2ccccc21 (stereo not shown) [11-Ethyl-7,9-dihydroxy-10,11-dihydrobenzo[b,f]thiepin]
[1]
  portion of the compound present as glucuronic conjugate in blood: not less than 99%
[2]; oral administration, 10 mg/kg
  airway contraction inhibition: showed the airway contraction inhibition
[3]
  IC50: ~5 µM

## CC(C)NCC(O)c1ccc(O[C@@H]2OC(C(=O)O)[C@@H](O)C(O)C2O)c(O)c1 (stereo partly drawn) [isoprenaline glucuronide, 4-O-(β-D-Glucuronyl)-isoprenaline]
[4]; 1.57 mg/L
  effect on blood pressure and heart rate: no effect was recognized at all
[5]; [6]
  increase ratio of the airway pressure: about 10%
  inhibition compared to the control group: about 77%
[5]
  inhibition of the immediate type asthmatic reaction (airway contraction): significantly inhibit

## CC(C)NCC(O)c1ccc(O)c(O)c1 (stereo not shown) [isoprenaline]
[2]; [7]
  inhibition compared to the control group: about 73%
[4]; 1 mg/L
  increase of the heart rate: about 49%
[4]; [8]
  maximum decrease of the blood pressure: 28%
  maximum increase of the heart rate: 50%
[4]; 1 mg/L, five minutes after completion of inhalation
  decrease of the blood pressure vs before the treatment: about 27%
[4]; isoprenaline 1 mg/L, five minutes after completion of inhalation
  blood pressure: 72 mmHg
[5]; [7]
  increase in the airway pressure: about 12%

## CC(C)(C)NCC(O)c1ccc(O)c(CO[C@@H]2OC(C(=O)O)[C@@H](O)C(O)C2O)c1 (stereo partly drawn) [salbutamol glucuronide, 3-O-(β-D-Glucuronyl)-salbutamol]
[2]; [9]
  inhibition compared to the control group: about 56%
[4]; 7.2 mg/L
  effect on blood pressure and heart rate: no effect was observed at all
[5]; [9]
  increase ratio of the airway pressure: about 20%
[5]
  inhibition of the immediate type asthmatic reaction (airway contraction): significantly inhibit

## CC(C)(C)NCC(O)c1ccc(O)c(CO)c1 (stereo not shown) [salbutamol]
[4]; 5 mg/L
  increase of the heart rate: about 36%
[4]; [10]
  maximum blood pressure decrease ratio: 27%
  maximum heart rate increase ratio: 39%
[4]; 5 mg/L, five minutes after completion of inhalation
  decrease of the blood pressure vs before inhalation (pre): about 26%
[4]; salbutamol 5 mg/L, five minutes after completion of inhalation
  blood pressure: 75 mmHg
[5]; inhalation 0.05%, 40 min before challenge, three minutes after antigen induction
  increase in the airway pressure: about 3%
[5]; inhalation 0.05%, three minutes after antigen induction
  inhibition compared to the control group: about 92%
